Measurements reported in ChEMBL document CHEMBL1201862, “PubChem BioAssay data set” (2004).
Activity calls are given as the source filed them.

Biological target: T1, RNA-binding protein pos-1 (Caenorhabditis elegans, UniProt G5EF15)
T1 sequence (G5EF15 whole entry): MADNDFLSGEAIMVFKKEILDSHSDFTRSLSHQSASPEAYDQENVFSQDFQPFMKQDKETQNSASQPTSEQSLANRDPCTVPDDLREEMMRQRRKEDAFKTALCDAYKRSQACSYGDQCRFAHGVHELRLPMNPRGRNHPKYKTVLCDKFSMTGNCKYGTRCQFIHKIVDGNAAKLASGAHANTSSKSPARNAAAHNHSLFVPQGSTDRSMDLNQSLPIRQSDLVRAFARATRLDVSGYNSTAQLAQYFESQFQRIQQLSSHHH
Assay: inhibitors of POS-1/mex-3 RNA binding, dose response, biochemical, fluorescence polarization (AID 1964);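 also: purified POS-1 fused to maltose binding protein made in E. coli; potency of compounds blocking POS-1 binding to fluorescent RNA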
Conditions: not given

| Compound | EC50 |
| --- | --- |
| CCOC(=O)c1c(-n2c(C)cc(/C=C3/C(=O)NC(=O)N(CC)C3=O)c2C)sc2c1CCCC2 | 25.1 µM (active) |
| CC(C)(C)c1ccc(OCc2ccc(C(=O)Nc3cccnc3)o2)cc1 | > 300 µM (not active) |
| O=C(NCC1CCCO1)c1ccc(CS(=O)(=O)Cc2ccc(F)cc2)o1 (stereo not given) | > 300 µM (not active) |
| Cc1cccc(C)c1NC(=O)NN=C1CCCCC1 | > 300 µM (not active) |

System: Streptococcus sp. 'group A'
Assay: growth inhibition of control SK(-) GAS strain, dose response, counter-screen for streptokinase expression inhibitor project, luminescence, kanamycin, BacTiterGlo, confirmation (AID 1900)
Type: functional, organism-based
Conditions: not given

| Compound | EC50 |
| --- | --- |
| COc1ccc2c(c1)c(CC(=O)Nc1cccc(S(N)(=O)=O)c1)c(C)n2C(=O)c1ccc(Cl)cc1 | 5.48 µM (active) |
| Cc1ccccc1N1CCN(C(=O)CCN2C(=O)c3ccccc3C2=O)CC1 | > 150 µM (not active) |
| Cc1cccc(OCC(=O)Nc2ccncc2)c1 | > 150 µM (not active) |
| CC(C)(O)c1[nH]c2cc(F)ccc2c1C(C)(C)O | 2.05 µM (active) |
| COc1ccc(/C=C/C(=O)NC(=S)NNC(=O)c2ccco2)cc1OC | 3.65 µM (active) |
| COC(=O)C1(C(C[N+](=O)[O-])c2ccc(C)cc2)C(=O)NCC1c1ccco1 (stereo not given) | 8.44 µM (active) |
| O=C(Nc1nnc(-c2ccc(Br)cc2)o1)c1cccc(N2C(=O)CCC2=O)c1 | 4.43 µM (active) |
| O=C(NCc1ccc2c(c1)OCO2)C(=O)NCC1OCCN1S(=O)(=O)c1ccc(Br)cc1 (stereo not given) | > 150 µM (not active) |
| Nc1nc(NCc2ccco2)nc(N2CCCCCC2)c1[N+](=O)[O-] | 2.82 µM (active) |
| Cc1cc(C)n(-c2nc(SCC(=O)O)c3c4c(sc3n2)CCCC4)n1 | 8.77 µM (active) |
| O=C(CN1C(=O)COc2ccc(S(=O)(=O)N3CCCCC3)cc21)NCc1ccc(F)cc1 | > 150 µM (not active) |
| CC/C(=N\NC(=S)Nc1cccc(C)c1)c1ccccc1 | 12.3 µM (active) |
| COc1cccc(/C=N/n2c(N)nc3ccccc32)c1OC | > 150 µM (not active) |
| C/C(=N/NS(=O)(=O)c1ccc(Cl)cc1)c1cccc(NC(=O)c2ccc(Cl)cc2Cl)c1 | 3.99 µM (active) |

System: not listed separately
Assay: Luminescence Cell-Based Dose Response HTS to Identify Inhibitors of 5'UTR Stem-Loop Driven Prion Protein mRNA Translation in H4 Neuroglioblastoma Cells. [Related pubchem assays: 1827 (Project Summary), 1813 (Primary HTS)]
Type: functional
Conditions: not given

| Compound | EC50 |
| --- | --- |
| COc1ccc(O)c2c(=O)c3c(OC)cc4c(c3oc12)C1C=COC1O4 (stereo not given) | 19.6 µM (active) |

Biological target: T2, Zinc finger protein mex-5 (Caenorhabditis elegans, UniProt Q9XUB2)
T2 sequence (Q9XUB2 whole entry): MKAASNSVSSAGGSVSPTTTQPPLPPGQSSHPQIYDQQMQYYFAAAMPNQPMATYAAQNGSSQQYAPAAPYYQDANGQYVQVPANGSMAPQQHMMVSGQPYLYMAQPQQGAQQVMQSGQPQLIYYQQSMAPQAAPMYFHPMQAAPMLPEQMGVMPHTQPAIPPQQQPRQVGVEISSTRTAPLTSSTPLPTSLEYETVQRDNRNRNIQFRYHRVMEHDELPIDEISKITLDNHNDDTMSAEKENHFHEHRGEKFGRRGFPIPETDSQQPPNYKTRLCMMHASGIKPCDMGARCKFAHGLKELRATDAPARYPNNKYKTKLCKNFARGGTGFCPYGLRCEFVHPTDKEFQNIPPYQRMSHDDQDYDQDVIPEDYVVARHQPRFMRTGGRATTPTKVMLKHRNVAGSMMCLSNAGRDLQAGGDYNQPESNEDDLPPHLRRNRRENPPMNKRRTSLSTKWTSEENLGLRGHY
Assay: MEX-5/TCR-2 RNA interaction inhibitors, dose response, biochemical, C. elegans, fluorescence polarization (AID 1960)
Conditions: not given

| Compound | EC50 |
| --- | --- |
| CCOC(=O)c1c(-n2c(C)cc(/C=C3/C(=O)NC(=O)N(CC)C3=O)c2C)sc2c1CCCC2 | 29.8 µM (active) |
| CC(C)(C)c1ccc(OCc2ccc(C(=O)Nc3cccnc3)o2)cc1 | > 300 µM (not active) |
| O=C(NCC1CCCO1)c1ccc(CS(=O)(=O)Cc2ccc(F)cc2)o1 (stereo not given) | > 300 µM (not active) |
| Cc1cccc(C)c1NC(=O)NN=C1CCCCC1 | > 300 µM (not active) |

Biological target: T3, Streptokinase A (Streptococcus pyogenes serotype M1, UniProt P10520)
T3 sequence (P10520 whole entry): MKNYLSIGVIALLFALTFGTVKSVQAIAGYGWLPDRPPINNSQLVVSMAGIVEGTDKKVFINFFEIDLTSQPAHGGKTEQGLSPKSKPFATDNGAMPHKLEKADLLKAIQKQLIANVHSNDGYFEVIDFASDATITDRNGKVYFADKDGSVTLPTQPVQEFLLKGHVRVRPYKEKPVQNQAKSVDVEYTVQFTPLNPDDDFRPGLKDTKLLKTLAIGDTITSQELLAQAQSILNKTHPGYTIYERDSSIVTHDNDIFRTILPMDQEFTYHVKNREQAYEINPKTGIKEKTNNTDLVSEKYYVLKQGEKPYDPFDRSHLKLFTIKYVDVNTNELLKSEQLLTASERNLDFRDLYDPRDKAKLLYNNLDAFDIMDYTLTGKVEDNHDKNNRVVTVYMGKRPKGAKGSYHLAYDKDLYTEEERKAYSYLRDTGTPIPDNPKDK
Assay: S. pyogenes streptokinase expression inhibitors, potency, dose response, plasminogen activation absorbance, OD405 (AID 1914);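 also: secreted streptokinase activity via plasminogen activation per viability signal from cell pellet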
Type: functional, Streptococcus pyogenes M1 GAS
Conditions: not given

| Compound | EC50 |
| --- | --- |
| COc1ccc2c(c1)c(CC(=O)Nc1cccc(S(N)(=O)=O)c1)c(C)n2C(=O)c1ccc(Cl)cc1 | > 150 µM (not active) |
| Cc1ccccc1N1CCN(C(=O)CCN2C(=O)c3ccccc3C2=O)CC1 | > 150 µM (not active) |
| Cc1cccc(OCC(=O)Nc2ccncc2)c1 | > 150 µM (not active) |
| CC(C)(O)c1[nH]c2cc(F)ccc2c1C(C)(C)O | > 150 µM (not active) |
| CN(Cc1ccc(OC(F)F)cc1)Cc1nc2c(Br)cc(Br)cc2c(=O)[nH]1 | 29.4 µM (active) |
| COc1ccc(/C=C/C(=O)NC(=S)NNC(=O)c2ccco2)cc1OC | > 150 µM (not active) |
| COC(=O)[C@H]1[C@H](CCc2ccccc2)NC(=O)N(Cc2ccccc2)[C@@H]1C | > 150 µM (not active) |
| COC(=O)C1(C(C[N+](=O)[O-])c2ccc(C)cc2)C(=O)NCC1c1ccco1 (stereo not given) | > 150 µM (inconclusive) |
| O=C(Nc1nnc(-c2ccc(Br)cc2)o1)c1cccc(N2C(=O)CCC2=O)c1 | > 150 µM (not active) |
| O=C(NCc1ccc2c(c1)OCO2)C(=O)NCC1OCCN1S(=O)(=O)c1ccc(Br)cc1 (stereo not given) | > 150 µM (inconclusive) |
| Nc1nc(NCc2ccco2)nc(N2CCCCCC2)c1[N+](=O)[O-] | > 150 µM (not active) |
| Cc1cc(C)n(-c2nc(SCC(=O)O)c3c4c(sc3n2)CCCC4)n1 | > 150 µM (not active) |
| O=C(CN1C(=O)COc2ccc(S(=O)(=O)N3CCCCC3)cc21)NCc1ccc(F)cc1 | > 150 µM (not active) |
| CC/C(=N\NC(=S)Nc1cccc(C)c1)c1ccccc1 | 21.3 µM (active) |
| COc1cccc(/C=N/n2c(N)nc3ccccc32)c1OC | > 150 µM (not active) |
| C/C(=N/NS(=O)(=O)c1ccc(Cl)cc1)c1cccc(NC(=O)c2ccc(Cl)cc2Cl)c1 | 23.4 µM (active) |

System: Streptococcus
Assay: Group A Streptococcus viability loss, dose response, counter-screen for streptokinase expression inhibitor project, luminescence, BacTiterGlo (AID 1915);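 also: potency for reduction of bacterial viability or growth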
Type: functional, organism-based
Conditions: not given

| Compound | EC50 |
| --- | --- |
| COc1ccc2c(c1)c(CC(=O)Nc1cccc(S(N)(=O)=O)c1)c(C)n2C(=O)c1ccc(Cl)cc1 | > 50 µM (not active) |
| Cc1ccccc1N1CCN(C(=O)CCN2C(=O)c3ccccc3C2=O)CC1 | > 150 µM (not active) |
| Cc1cccc(OCC(=O)Nc2ccncc2)c1 | > 150 µM (not active) |
| CC(C)(O)c1[nH]c2cc(F)ccc2c1C(C)(C)O | 8.02 µM (active) |
| COc1ccc(/C=C/C(=O)NC(=S)NNC(=O)c2ccco2)cc1OC | 25.4 µM (active) |
| COC(=O)[C@H]1[C@H](CCc2ccccc2)NC(=O)N(Cc2ccccc2)[C@@H]1C | > 150 µM (not active) |
| COC(=O)C1(C(C[N+](=O)[O-])c2ccc(C)cc2)C(=O)NCC1c1ccco1 (stereo not given) | 76.6 µM (active) |
| O=C(Nc1nnc(-c2ccc(Br)cc2)o1)c1cccc(N2C(=O)CCC2=O)c1 | 14.1 µM (active) |
| O=C(NCc1ccc2c(c1)OCO2)C(=O)NCC1OCCN1S(=O)(=O)c1ccc(Br)cc1 (stereo not given) | > 150 µM (not active) |
| Nc1nc(NCc2ccco2)nc(N2CCCCCC2)c1[N+](=O)[O-] | 7.75 µM (active) |
| Cc1cc(C)n(-c2nc(SCC(=O)O)c3c4c(sc3n2)CCCC4)n1 | > 150 µM (not active) |
| O=C(CN1C(=O)COc2ccc(S(=O)(=O)N3CCCCC3)cc21)NCc1ccc(F)cc1 | > 150 µM (not active) |
| CC/C(=N\NC(=S)Nc1cccc(C)c1)c1ccccc1 | > 50 µM (not active) |
| COc1cccc(/C=N/n2c(N)nc3ccccc32)c1OC | > 150 µM (not active) |
| C/C(=N/NS(=O)(=O)c1ccc(Cl)cc1)c1cccc(NC(=O)c2ccc(Cl)cc2Cl)c1 | 47.6 µM (active) |

Biological target: Cytochrome P450 2C19 (Homo sapiens, UniProt P33261)
Sequence (P33261 whole entry): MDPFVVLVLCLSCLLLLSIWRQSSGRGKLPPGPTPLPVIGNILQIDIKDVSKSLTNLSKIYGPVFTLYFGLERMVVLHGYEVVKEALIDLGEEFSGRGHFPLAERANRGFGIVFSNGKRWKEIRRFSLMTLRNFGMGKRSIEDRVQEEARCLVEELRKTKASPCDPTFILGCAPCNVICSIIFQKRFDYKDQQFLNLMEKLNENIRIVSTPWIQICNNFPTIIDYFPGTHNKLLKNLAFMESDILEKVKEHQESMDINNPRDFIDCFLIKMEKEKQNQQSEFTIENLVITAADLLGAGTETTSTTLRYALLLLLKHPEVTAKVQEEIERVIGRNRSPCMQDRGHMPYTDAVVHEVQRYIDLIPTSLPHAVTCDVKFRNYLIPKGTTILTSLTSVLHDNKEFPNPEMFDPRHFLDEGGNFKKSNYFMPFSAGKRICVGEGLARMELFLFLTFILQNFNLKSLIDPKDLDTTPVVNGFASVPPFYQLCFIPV
Assay: Cytochrome panel assay with activity outcomes. Panel member name: p450-cyp2c19 Compounds with AC50 equal or less than 10 uM are considered active
Type: functional
Conditions: read-out: AC50

| Compound | AC50 |
| --- | --- |
| O=C(NCC1CCCO1)c1ccc(CS(=O)(=O)Cc2ccc(F)cc2)o1 (stereo not given) | 39.8 µM (inconclusive) |
